The test system of this data set is CCRIS mutagenicity, Ames/micronucleus/aberration tests. The experiment in a line: CCRIS mutagenicity studies.
[1] abbreviates: Test System: AMES SALMONELLA TYPHIMURIUM, Strain/Indicator: TA98, Metabolic Activation: HAMSTER, LIVER, S-9, AROCLOR 1254, Method: STANDARD PLATE.
[2] abbreviates: Test System: AMES SALMONELLA TYPHIMURIUM, Strain/Indicator: TA98, Metabolic Activation: NONE, Method: STANDARD PLATE.
Setting [3] is: Test System: AMES SALMONELLA TYPHIMURIUM, Strain/Indicator: TA98, Metabolic Activation: RAT, LIVER, S-9, AROCLOR 1254, Method: STANDARD PLATE.
Where [4] appears, read: Test System: AMES SALMONELLA TYPHIMURIUM, Strain/Indicator: TA100, Metabolic Activation: HAMSTER, LIVER, S-9, AROCLOR 1254, Method: STANDARD PLATE.
Setting [5] is: Test System: AMES SALMONELLA TYPHIMURIUM, Strain/Indicator: TA100, Metabolic Activation: NONE, Method: STANDARD PLATE.
[6] abbreviates: Test System: AMES SALMONELLA TYPHIMURIUM, Strain/Indicator: TA100, Metabolic Activation: RAT, LIVER, S-9, AROCLOR 1254, Method: STANDARD PLATE.
[7] abbreviates: Test System: AMES SALMONELLA TYPHIMURIUM, Strain/Indicator: TA1535, Metabolic Activation: NONE, Method: STANDARD PLATE.
Where [8] appears, read: Test System: AMES SALMONELLA TYPHIMURIUM, Strain/Indicator: TA1535, Metabolic Activation: RAT, LIVER, S-9, AROCLOR 1254, Method: STANDARD PLATE.
Setting [9] is: Test System: AMES SALMONELLA TYPHIMURIUM, Strain/Indicator: TA1537, Metabolic Activation: NONE, Method: STANDARD PLATE.
Where [10] appears, read: Test System: AMES SALMONELLA TYPHIMURIUM, Strain/Indicator: TA1537, Metabolic Activation: RAT, LIVER, S-9, AROCLOR 1254, Method: STANDARD PLATE.
[11] abbreviates: Test System: AMES SALMONELLA TYPHIMURIUM, Strain/Indicator: TA1538, Metabolic Activation: NONE, Method: STANDARD PLATE.
Setting [12] is: Test System: AMES SALMONELLA TYPHIMURIUM, Strain/Indicator: TA1538, Metabolic Activation: RAT, LIVER, S-9, AROCLOR 1254, Method: STANDARD PLATE.
[13] abbreviates: Test System: MOUSE LYMPHOMA, Strain/Indicator: L5178Y (TK+/TK-), Metabolic Activation: NONE, Method: SUSPENSION/PLATE.
Where [14] appears, read: Test System: Mouse lymphoma, Strain/Indicator: L5178Y (tk+/tk-), Metabolic Activation: None, Method: Suspension/plate.
[15] abbreviates: Test System: Mouse lymphoma, Strain/Indicator: L5178Y (tk+/tk-), Metabolic Activation: Rat, Liver, S-9, Aroclor 1254, Method: Suspension/plate.
Where [16] appears, read: Test System: AMES SALMONELLA TYPHIMURIUM, Strain/Indicator: TA100, Metabolic Activation: NONE, Method: PREINCUBATION

The structures appear in SMILES notation. Active and inactive are the calls of the source. How the calls were made is not given here.

For the molecule `Nc1ccc(S(N)(=O)=O)cc1`, the mutagenic call is, setting by setting: (End Point: IN VITRO CHROMOSOMAL ABERRATIONS, Test System: CHINESE HAMSTER OVARY CELLS, Metabolic Activation: NONE) “inactive; negative”; (End Point: IN VITRO CHROMOSOMAL ABERRATIONS, Test System: CHINESE HAMSTER OVARY CELLS, Metabolic Activation: RAT, LIVER, S-9, AROCLOR 1254) “inactive; negative”; under setting [1], “inactive; negative”; under setting [2], “inactive; negative”; under setting [3], “inactive; negative”; under setting [4], “inactive; negative”. The mutagenic call by setting is: under setting [5], “inactive; negative”; under setting [6], “inactive; negative”; (Test System: AMES SALMONELLA TYPHIMURIUM, Strain/Indicator: TA1535, Metabolic Activation: HAMSTER, LIVER, S-9, AROCLOR 1254, Method: STANDARD PLATE) “inactive; negative”; under setting [7], “inactive; negative”; under setting [8], “inactive; negative”; (Test System: AMES SALMONELLA TYPHIMURIUM, Strain/Indicator: TA1537, Metabolic Activation: HAMSTER, LIVER, S-9, AROCLOR 1254, Method: STANDARD PLATE) “inactive; negative”. Besides, the mutagenic call is, setting by setting: under setting [9], “inactive; negative”; under setting [10], “inactive; negative”; (Test System: AMES SALMONELLA TYPHIMURIUM, Strain/Indicator: TA1538, Metabolic Activation: HAMSTER, LIVER, S-9, AROCLOR 1254, Method: STANDARD PLATE) “inactive; negative”; under setting [11], “inactive; negative”; under setting [12], “inactive; negative”; under setting [13], “inactive; negative”. Moreover, the mutagenic call (Test System: MOUSE LYMPHOMA, Strain/Indicator: L5178Y (TK+/TK-), Metabolic Activation: RAT, LIVER, S-9, AROCLOR 1254, Method: SUSPENSION/PLATE) is “inactive; negative”; the mutagenic call under setting [14] is “inactive; negative”; the mutagenic call under setting [15] was “inactive; negative”.
Regarding `CCCCC(CC)COC(=O)c1ccc(C(=O)O)cc1` (configuration not stated), the mutagenic call was “inactive; negative” under setting [2]; “inactive; negative” under setting [3]; “inactive; negative” under setting [5]; “inactive; negative” under setting [6]; “inactive; negative” under setting [7]; “inactive; negative” under setting [8]. Further, the mutagenic call is “inactive; negative” under setting [9], “inactive; negative” under setting [10], “inactive; negative” under setting [11] and “inactive; negative” under setting [12].
As for `O=C(O)c1cc(=O)c2cccc(O)c2[nH]1`, the mutagenic call under setting [16] is “inactive; negative”.
`Cc1ccc(N)cc1Cl`: the mutagenic call was “inactive; negative” under setting [2]; “inactive; negative” under setting [3]; “inactive; negative” under setting [5]; “inactive; negative” under setting [6]; “inactive; negative” under setting [7]; “inactive; negative” under setting [8]. Further, the mutagenic call under setting [9] is “inactive; negative”; the mutagenic call under setting [10] was “inactive; negative”; the mutagenic call under setting [11] is “inactive; negative”; the mutagenic call under setting [12] was “inactive; negative”; the mutagenic call (Test System: CHINESE HAMSTER OVARY, Strain/Indicator: CHO-K1-BH4 (HPRT)/6-THIOGUANINE, Metabolic Activation: NONE) was “inactive; negative”; the mutagenic call (Test System: CHINESE HAMSTER OVARY, Strain/Indicator: CHO-K1-BH4 (HPRT)/6-THIOGUANINE, Metabolic Activation: RAT, LIVER, S-9, AROCLOR 1254) is “inactive; negative”.
On to `COc1cc2c(cc1O)CCN[C@]21CS[C@@H]2c3c(OC(C)=O)c(C)c4c(c3[C@H](COC1=O)N1[C@@H]2[C@H]2c3c(cc(C)c(OC)c3O)C[C@@H]([C@@H]1O)N2C)OCO4`, for which the mutagenic call is “active; positive” under setting [1]; “inactive; negative” under setting [2]; “active; positive” under setting [3]; “inactive; negative” under setting [4]; “inactive; negative” under setting [5]; “inactive; negative” under setting [6]. Besides, the mutagenic call reads like this: under setting [14], “active; positive”; under setting [15], “active; positive”.
`COC(=O)c1ccccc1C(=O)OC`: the mutagenic call is, setting by setting: (End Point: IN VITRO CHROMOSOMAL ABERRATIONS, Test System: CHO-LB CELLS, Metabolic Activation: NONE) “inactive; negative”; (End Point: IN VITRO CHROMOSOMAL ABERRATIONS, Test System: CHO-LB CELLS, Metabolic Activation: RAT, LIVER, S-9, AROCLOR 1254) “inactive; negative”; (Test System: AMES SALMONELLA TYPHIMURIUM, Strain/Indicator: TA98, Metabolic Activation: HAMSTER, LIVER, S-9, AROCLOR 1254 (10%), Method: PREINCUBATION) “inactive; negative”; (Test System: AMES SALMONELLA TYPHIMURIUM, Strain/Indicator: TA98, Metabolic Activation: NONE, Method: PREINCUBATION) “inactive; negative”; (Test System: AMES SALMONELLA TYPHIMURIUM, Strain/Indicator: TA98, Metabolic Activation: RAT, LIVER, S-9, AROCLOR 1254 (10%), Method: PREINCUBATION) “inactive; negative”; (Test System: AMES SALMONELLA TYPHIMURIUM, Strain/Indicator: TA100, Metabolic Activation: HAMSTER, LIVER, S-9, AROCLOR 1254 (10%), Method: PREINCUBATION) “inactive; negative”. The mutagenic call by setting is: under setting [16], “inactive; negative”; (Test System: AMES SALMONELLA TYPHIMURIUM, Strain/Indicator: TA100, Metabolic Activation: RAT, LIVER, S-9, AROCLOR 1254 (10%), Method: PREINCUBATION) “inactive; negative”; under setting [6], “inactive; negative”; (Test System: AMES SALMONELLA TYPHIMURIUM, Strain/Indicator: TA100, Metabolic Activation: S-9, Method: STANDARD PLATE) “inactive; negative”; (Test System: AMES SALMONELLA TYPHIMURIUM, Strain/Indicator: TA1535, Metabolic Activation: HAMSTER, LIVER, S-9, AROCLOR 1254 (10%), Method: PREINCUBATION) “inactive; negative”; (Test System: AMES SALMONELLA TYPHIMURIUM, Strain/Indicator: TA1535, Metabolic Activation: NONE, Method: PREINCUBATION) “inactive; negative”. The mutagenic call was “inactive; negative” under setting [7]; “inactive; negative” (Test System: AMES SALMONELLA TYPHIMURIUM, Strain/Indicator: TA1535, Metabolic Activation: RAT, LIVER, S-9, AROCLOR 1254 (10%), Method: PREINCUBATION); “inactive; negative” (Test System: AMES SALMONELLA TYPHIMURIUM, Strain/Indicator: TA1535, Metabolic Activation: S-9, Method: STANDARD PLATE); “inactive; negative” (Test System: AMES SALMONELLA TYPHIMURIUM, Strain/Indicator: TA1537, Metabolic Activation: HAMSTER, LIVER, S-9, AROCLOR 1254 (10%), Method: PREINCUBATION); “inactive; negative” (Test System: AMES SALMONELLA TYPHIMURIUM, Strain/Indicator: TA1537, Metabolic Activation: NONE, Method: PREINCUBATION); “inactive; negative” (Test System: AMES SALMONELLA TYPHIMURIUM, Strain/Indicator: TA1537, Metabolic Activation: RAT, LIVER, S-9, AROCLOR 1254 (10%), Method: PREINCUBATION). The mutagenic call by setting is: under setting [13], “inactive; negative”; (Test System: MOUSE LYMPHOMA, Strain/Indicator: L5178Y (TK+/TK-), Metabolic Activation: RAT LIVER S-9, Method: SUSPENSION/PLATE) “active; positive”.

(Values after PubChem BioAssay AID1259407 (Chemical Carcinogenesis Research Information System (CCRIS), 2018).)
